Test results reported in patent publication US9790178B2, “Pyrrolidinyl urea, thiourea, guanidine and cyanoguanidine compounds as TrkA kinase inhibitors” (Array BioPharma Inc., priority 2012, dated 2017).

Assays:
Assay in all cases: KinaseProfiler off-target kinase profiling
Assay type in all cases: biochemical
Conditions in all cases: 10 μM, ATP near Km
[1] = target: T1, AKT2 (Homo sapiens, UniProt P31751)
T1 construct: purchased Millipore, Inc. (KinaseProfiler service)
Procedure: (§1) A representative compound of the invention (Example 20) was tested for off-target kinase activity at a concentration of 10 μM by Millipore, Inc. in their KinaseProfiler™ service against all the kinases available in their full kinase panel. The compound was run in duplicate at a concentration of ATP near the Km for each individual kinase according to Millipore's specifications. The results are shown in Table B. Data are reported as percent of control (POC) and are the average of the two replicates.

[2] = target: T2, ALK (Homo sapiens, UniProt Q9UM73)
T2 construct: purchased Millipore, Inc. (KinaseProfiler service)
Procedure: as §1

[3] = target: T3, AMPK(A1/B1/G1) (Homo sapiens, UniProt Q13131)
T3 construct: purchased Millipore, Inc. (KinaseProfiler service)
Procedure: as §1

[4] = target: T4, CAMK1 (Homo sapiens, UniProt Q14012)
T4 construct: purchased Millipore, Inc. (KinaseProfiler service)
Procedure: as §1

[5] = target: T5, CAMK4 (Homo sapiens, UniProt Q16566)
T5 construct: purchased Millipore, Inc. (KinaseProfiler service)
Procedure: as §1

[6] = target: T6, CHK1 (Homo sapiens, UniProt O14757)
T6 construct: purchased Millipore, Inc. (KinaseProfiler service)
Procedure: as §1

[7] = target: T7, CK2 (Homo sapiens, UniProt P68400)
T7 construct: purchased Millipore, Inc. (KinaseProfiler service)
Procedure: as §1

[8] = target: T8, CLK2 (Homo sapiens, UniProt P49760)
T8 construct: purchased Millipore, Inc. (KinaseProfiler service)
Procedure: as §1

[9] = target: T9, CSK (Homo sapiens, UniProt P41240)
T9 construct: purchased Millipore, Inc. (KinaseProfiler service)
Procedure: as §1

[10] = target: T10, DAPK2 (Homo sapiens, UniProt Q9UIK4)
T10 construct: purchased Millipore, Inc. (KinaseProfiler service)
Procedure: as §1

[11] = target: T11, ERK2 (Homo sapiens, UniProt P28482)
T11 construct: purchased Millipore, Inc. (KinaseProfiler service)
T11 sequence (P28482 whole entry): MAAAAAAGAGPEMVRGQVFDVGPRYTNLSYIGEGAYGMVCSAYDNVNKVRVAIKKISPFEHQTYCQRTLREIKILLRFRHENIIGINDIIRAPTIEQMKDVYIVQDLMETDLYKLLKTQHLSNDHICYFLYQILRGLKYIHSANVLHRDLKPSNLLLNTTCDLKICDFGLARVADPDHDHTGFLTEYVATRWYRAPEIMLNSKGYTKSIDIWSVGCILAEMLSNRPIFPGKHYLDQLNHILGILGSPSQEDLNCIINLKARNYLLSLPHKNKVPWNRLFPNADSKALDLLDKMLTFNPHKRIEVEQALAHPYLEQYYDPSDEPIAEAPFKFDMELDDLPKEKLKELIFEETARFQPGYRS
Procedure: as §1

[12] = target: T12, EphA1 (Homo sapiens, UniProt P21709)
T12 construct: purchased Millipore, Inc. (KinaseProfiler service)
T12 sequence (P21709 26-976): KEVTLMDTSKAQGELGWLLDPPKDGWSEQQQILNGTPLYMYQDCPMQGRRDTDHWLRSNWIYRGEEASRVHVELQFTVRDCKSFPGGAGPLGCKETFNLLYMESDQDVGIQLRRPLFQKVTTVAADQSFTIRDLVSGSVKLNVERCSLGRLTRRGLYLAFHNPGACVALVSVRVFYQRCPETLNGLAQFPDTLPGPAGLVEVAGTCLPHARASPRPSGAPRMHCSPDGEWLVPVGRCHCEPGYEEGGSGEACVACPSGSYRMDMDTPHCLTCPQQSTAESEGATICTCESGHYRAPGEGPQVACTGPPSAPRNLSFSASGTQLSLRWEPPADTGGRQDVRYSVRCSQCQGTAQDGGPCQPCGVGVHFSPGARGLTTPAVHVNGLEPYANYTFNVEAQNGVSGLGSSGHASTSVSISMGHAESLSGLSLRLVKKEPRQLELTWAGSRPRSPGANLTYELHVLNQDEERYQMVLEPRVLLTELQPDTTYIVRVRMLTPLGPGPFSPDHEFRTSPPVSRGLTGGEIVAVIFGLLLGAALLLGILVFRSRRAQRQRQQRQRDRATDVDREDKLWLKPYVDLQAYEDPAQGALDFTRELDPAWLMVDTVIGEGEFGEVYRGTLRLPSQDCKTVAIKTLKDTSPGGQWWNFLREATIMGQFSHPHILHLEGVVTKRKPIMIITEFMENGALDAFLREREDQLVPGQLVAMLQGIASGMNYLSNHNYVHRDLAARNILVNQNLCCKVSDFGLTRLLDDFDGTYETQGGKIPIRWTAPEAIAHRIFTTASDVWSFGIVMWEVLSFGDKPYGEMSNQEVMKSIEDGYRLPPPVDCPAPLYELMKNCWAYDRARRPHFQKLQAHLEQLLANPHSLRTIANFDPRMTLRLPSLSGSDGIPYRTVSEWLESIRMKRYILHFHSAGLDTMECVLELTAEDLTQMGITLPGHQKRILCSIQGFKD
Procedure: as §1

[13] = target: T13, EphA7 (Homo sapiens, UniProt Q15375)
T13 construct: purchased Millipore, Inc. (KinaseProfiler service)
Procedure: as §1

[14] = target: T14, FAK (Homo sapiens, UniProt Q05397)
T14 construct: purchased Millipore, Inc. (KinaseProfiler service)
T14 sequence (Q05397 whole entry): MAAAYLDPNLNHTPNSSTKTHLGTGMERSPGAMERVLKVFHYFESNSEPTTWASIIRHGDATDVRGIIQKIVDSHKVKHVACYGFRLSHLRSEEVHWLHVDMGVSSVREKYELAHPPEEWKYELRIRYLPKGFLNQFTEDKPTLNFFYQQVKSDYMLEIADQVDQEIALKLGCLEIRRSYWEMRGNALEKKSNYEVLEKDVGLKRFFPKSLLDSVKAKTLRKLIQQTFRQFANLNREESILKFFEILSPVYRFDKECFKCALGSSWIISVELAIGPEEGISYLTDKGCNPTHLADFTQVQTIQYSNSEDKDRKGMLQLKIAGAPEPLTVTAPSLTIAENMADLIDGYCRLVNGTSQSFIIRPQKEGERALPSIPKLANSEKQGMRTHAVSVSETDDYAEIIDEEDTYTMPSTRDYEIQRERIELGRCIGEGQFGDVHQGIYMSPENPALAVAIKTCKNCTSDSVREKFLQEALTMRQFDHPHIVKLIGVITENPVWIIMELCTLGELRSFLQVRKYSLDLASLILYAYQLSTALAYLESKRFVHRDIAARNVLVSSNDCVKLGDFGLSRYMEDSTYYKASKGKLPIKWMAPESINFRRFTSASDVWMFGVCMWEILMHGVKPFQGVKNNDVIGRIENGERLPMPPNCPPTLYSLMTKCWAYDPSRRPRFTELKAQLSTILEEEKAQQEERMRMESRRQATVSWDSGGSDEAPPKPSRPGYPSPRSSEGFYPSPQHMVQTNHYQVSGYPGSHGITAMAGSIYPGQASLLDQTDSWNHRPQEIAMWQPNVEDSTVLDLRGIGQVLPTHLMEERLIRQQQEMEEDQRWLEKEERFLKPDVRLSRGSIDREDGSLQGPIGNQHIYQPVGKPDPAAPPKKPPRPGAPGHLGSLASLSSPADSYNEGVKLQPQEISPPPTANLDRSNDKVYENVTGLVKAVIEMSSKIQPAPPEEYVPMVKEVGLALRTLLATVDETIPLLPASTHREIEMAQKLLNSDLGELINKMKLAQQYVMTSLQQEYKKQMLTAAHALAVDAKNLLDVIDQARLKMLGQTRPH
Procedure: as §1

[15] = target: T15, IKKalpha (Homo sapiens, UniProt O15111)
T15 construct: purchased Millipore, Inc. (KinaseProfiler service)
Procedure: as §1

[16] = target: T16, IRAK1 (Homo sapiens, UniProt P51617)
T16 construct: purchased Millipore, Inc. (KinaseProfiler service)
Procedure: as §1

[17] = target: T17, JAK3 (Homo sapiens, UniProt P52333)
T17 construct: purchased Millipore, Inc. (KinaseProfiler service)
Procedure: as §1

[18] = target: T18, JNK1alpha1 (Homo sapiens, UniProt P45983)
T18 construct: purchased Millipore, Inc. (KinaseProfiler service)
Procedure: as §1

[19] = target: T19, JNK3 (Homo sapiens, UniProt P53779)
T19 construct: purchased Millipore, Inc. (KinaseProfiler service)
T19 sequence (P53779 whole entry): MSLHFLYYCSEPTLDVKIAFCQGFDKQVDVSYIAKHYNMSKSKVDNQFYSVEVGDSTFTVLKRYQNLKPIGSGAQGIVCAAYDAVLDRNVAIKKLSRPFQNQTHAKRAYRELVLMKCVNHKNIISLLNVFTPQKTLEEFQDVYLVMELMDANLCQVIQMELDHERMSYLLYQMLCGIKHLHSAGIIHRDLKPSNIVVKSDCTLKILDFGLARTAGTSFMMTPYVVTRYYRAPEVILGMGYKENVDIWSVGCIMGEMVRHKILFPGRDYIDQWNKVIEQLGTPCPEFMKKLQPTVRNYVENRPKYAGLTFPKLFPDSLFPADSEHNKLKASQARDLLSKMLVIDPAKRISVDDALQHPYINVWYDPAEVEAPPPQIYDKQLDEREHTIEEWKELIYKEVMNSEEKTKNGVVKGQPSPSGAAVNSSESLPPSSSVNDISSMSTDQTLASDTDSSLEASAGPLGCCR
Procedure: as §1

[20] = target: T20, KIT (Homo sapiens, UniProt P10721)
T20 construct: purchased Millipore, Inc. (KinaseProfiler service)
Procedure: as §1

[21] = target: T21, Lck (Homo sapiens, UniProt P06239)
T21 construct: purchased Millipore, Inc. (KinaseProfiler service)
Procedure: as §1

[22] = target: T22, MAPKAP-K3 (Homo sapiens, UniProt Q16644)
T22 construct: purchased Millipore, Inc. (KinaseProfiler service)
Procedure: as §1

[23] = target: T23, MAPKAP-K5 (Homo sapiens, UniProt Q8IW41)
T23 construct: purchased Millipore, Inc. (KinaseProfiler service)
Procedure: as §1

[24] = target: T24, MINK (Homo sapiens, UniProt Q8N4C8)
T24 construct: purchased Millipore, Inc. (KinaseProfiler service)
Procedure: as §1

[25] = target: T25, MKNK2 (Homo sapiens, UniProt Q9HBH9)
T25 construct: purchased Millipore, Inc. (KinaseProfiler service)
Procedure: as §1

[26] = target: T26, Met (Homo sapiens, UniProt P08581)
T26 construct: purchased Millipore, Inc. (KinaseProfiler service)
Procedure: as §1

[27] = target: T27, MuSK (Homo sapiens, UniProt O15146)
T27 construct: purchased Millipore, Inc. (KinaseProfiler service)
Procedure: as §1

[28] = target: T28, NEK2 (Homo sapiens, UniProt P51955)
T28 construct: purchased Millipore, Inc. (KinaseProfiler service)
Procedure: as §1

[29] = target: T29, NEK6 (Homo sapiens, UniProt Q9HC98)
T29 construct: purchased Millipore, Inc. (KinaseProfiler service)
Procedure: as §1

[30] = target: T30, PKCgamma (Homo sapiens, UniProt P05129)
T30 construct: purchased Millipore, Inc. (KinaseProfiler service)
Procedure: as §1

[31] = target: T31, PRK2 (Homo sapiens, UniProt Q16513)
T31 construct: purchased Millipore (KinaseProfiler service)
Procedure: as §1

[32] = target: T32, PRKG1alpha (Homo sapiens, UniProt Q13976)
T32 construct: purchased Millipore (KinaseProfiler service)
Procedure: as §1

[33] = target: T33, PRKG1beta (Homo sapiens, UniProt Q13976)
T33 construct: purchased Millipore (KinaseProfiler service)
Procedure: as §1

[34] = target: T34, Plk2 (Homo sapiens, UniProt Q9NYY3)
T34 construct: purchased Millipore (KinaseProfiler service)
Procedure: as §1

[35] = target: T35, Pyk2 (Homo sapiens, UniProt Q14289)
T35 construct: purchased Millipore (KinaseProfiler service)
Procedure: as §1

[36] = target: T36, SGK2 (Homo sapiens, UniProt Q9HBY8)
T36 construct: purchased Millipore, Inc. (KinaseProfiler service)
Procedure: as §1

[37] = target: T37, SRPK1 (Homo sapiens, UniProt Q96SB4)
T37 construct: purchased Millipore, Inc. (KinaseProfiler service)
Procedure: as §1

[38] = target: T38, TSSK2 (Homo sapiens, UniProt Q96PF2)
T38 construct: purchased Millipore, Inc. (KinaseProfiler service)
Procedure: as §1

[39] = target: T39, WNK2 (Homo sapiens, UniProt Q9Y3S1)
T39 construct: purchased Millipore, Inc. (KinaseProfiler service)
T39 sequence (Q9Y3S1 whole entry): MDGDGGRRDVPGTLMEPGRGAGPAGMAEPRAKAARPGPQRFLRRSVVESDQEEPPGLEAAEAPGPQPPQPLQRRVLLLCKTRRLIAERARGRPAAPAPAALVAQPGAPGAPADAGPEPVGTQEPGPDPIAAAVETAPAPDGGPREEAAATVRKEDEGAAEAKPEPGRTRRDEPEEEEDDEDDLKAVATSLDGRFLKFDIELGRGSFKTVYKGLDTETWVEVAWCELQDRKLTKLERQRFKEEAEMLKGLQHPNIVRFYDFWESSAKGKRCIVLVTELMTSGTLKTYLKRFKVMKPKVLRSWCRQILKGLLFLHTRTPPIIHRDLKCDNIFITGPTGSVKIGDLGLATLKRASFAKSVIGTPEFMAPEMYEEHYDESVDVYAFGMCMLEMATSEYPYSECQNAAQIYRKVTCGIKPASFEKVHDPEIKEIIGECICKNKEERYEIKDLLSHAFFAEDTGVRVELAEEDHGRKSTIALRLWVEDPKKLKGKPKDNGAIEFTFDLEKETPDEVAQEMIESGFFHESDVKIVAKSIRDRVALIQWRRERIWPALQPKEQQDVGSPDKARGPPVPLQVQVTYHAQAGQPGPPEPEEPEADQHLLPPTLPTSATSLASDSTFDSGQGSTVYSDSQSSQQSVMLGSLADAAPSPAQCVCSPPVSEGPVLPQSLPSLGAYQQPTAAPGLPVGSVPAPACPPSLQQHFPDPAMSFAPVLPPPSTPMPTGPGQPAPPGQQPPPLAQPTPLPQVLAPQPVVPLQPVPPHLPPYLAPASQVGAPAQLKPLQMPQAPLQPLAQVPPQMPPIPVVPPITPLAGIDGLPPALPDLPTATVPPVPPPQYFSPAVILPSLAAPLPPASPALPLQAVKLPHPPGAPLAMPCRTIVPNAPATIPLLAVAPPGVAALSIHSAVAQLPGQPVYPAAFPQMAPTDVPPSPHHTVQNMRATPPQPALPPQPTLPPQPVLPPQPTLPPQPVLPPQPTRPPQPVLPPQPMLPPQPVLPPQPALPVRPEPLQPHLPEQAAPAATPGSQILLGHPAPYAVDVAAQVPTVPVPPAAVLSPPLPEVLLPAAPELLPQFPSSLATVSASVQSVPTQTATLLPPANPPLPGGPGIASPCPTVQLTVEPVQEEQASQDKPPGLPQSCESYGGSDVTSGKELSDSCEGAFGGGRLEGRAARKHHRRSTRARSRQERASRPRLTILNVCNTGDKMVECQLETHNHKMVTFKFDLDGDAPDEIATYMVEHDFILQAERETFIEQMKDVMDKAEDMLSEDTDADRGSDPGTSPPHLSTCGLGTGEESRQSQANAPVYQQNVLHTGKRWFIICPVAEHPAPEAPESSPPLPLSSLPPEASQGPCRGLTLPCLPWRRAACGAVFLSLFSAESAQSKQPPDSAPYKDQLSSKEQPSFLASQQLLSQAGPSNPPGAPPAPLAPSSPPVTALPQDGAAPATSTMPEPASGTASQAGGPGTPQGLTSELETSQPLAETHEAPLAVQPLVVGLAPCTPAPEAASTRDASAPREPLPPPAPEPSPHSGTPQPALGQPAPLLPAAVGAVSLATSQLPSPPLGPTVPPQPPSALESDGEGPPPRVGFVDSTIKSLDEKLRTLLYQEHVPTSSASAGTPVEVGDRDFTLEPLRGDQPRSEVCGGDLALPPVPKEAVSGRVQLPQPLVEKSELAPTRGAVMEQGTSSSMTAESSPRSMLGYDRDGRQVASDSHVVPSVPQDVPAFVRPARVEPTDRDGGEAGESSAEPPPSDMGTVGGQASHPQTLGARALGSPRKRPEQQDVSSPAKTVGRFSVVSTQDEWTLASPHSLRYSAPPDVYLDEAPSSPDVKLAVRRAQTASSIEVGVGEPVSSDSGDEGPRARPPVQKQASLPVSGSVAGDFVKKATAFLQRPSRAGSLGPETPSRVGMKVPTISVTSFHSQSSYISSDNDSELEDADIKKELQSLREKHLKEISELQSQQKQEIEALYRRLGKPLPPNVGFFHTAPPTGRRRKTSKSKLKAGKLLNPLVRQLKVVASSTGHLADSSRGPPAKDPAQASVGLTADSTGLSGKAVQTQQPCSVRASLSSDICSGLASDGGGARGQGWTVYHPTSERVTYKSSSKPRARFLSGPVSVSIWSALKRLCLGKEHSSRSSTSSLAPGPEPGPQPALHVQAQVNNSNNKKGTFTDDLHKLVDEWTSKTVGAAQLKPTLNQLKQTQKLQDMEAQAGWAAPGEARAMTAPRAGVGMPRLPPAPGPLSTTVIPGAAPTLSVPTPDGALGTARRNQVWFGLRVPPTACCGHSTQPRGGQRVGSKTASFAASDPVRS
Procedure: as §1

[40] = target: T40, p38delta (Homo sapiens, UniProt O15264)
T40 construct: purchased Millipore, Inc. (KinaseProfiler service)
Procedure: as §1

[41] = target: T41, p38gamma (Homo sapiens, UniProt P53778)
T41 construct: purchased Millipore, Inc. (KinaseProfiler service)
Procedure: as §1

Avg. POC [1]: 131 POC
Avg. POC [2]: 114 POC
Avg. POC [3]: 108.5 POC
Avg. POC [4]: 105.5 POC
Avg. POC [5]: 105 POC
Avg. POC [6]: 103.5 POC
Avg. POC [7]: 109 POC
Avg. POC [8]: 106.5 POC
Avg. POC [9]: 104.5 POC
Avg. POC [10]: 104 POC
Avg. POC [11]: 96 POC
Avg. POC [12]: 99 POC
Avg. POC [13]: 104.5 POC
Avg. POC [14]: 109.5 POC
Avg. POC [15]: 121 POC
Avg. POC [16]: 109.5 POC
Avg. POC [17]: 115 POC
Avg. POC [18]: 105 POC
Avg. POC [19]: 124.5 POC
Avg. POC [20]: 117.5 POC
Avg. POC [21]: 135.5 POC
Avg. POC [22]: 105 POC
Avg. POC [23]: 88.5 POC
Avg. POC [24]: 99 POC
Avg. POC [25]: 103 POC
Avg. POC [26]: 110 POC
Avg. POC [27]: 108.5 POC
Avg. POC [28]: 91 POC
Avg. POC [29]: 92.5 POC
Avg. POC [30]: 111 POC
Avg. POC [31]: 104 POC
Avg. POC [32]: 111.5 POC
Avg. POC [33]: 124 POC
Avg. POC [34]: 106 POC
Avg. POC [35]: 98.5 POC
Avg. POC [36]: 105 POC
Avg. POC [37]: 113.5 POC
Avg. POC [38]: 106 POC
Avg. POC [39]: 120 POC
Avg. POC [40]: 105 POC
Avg. POC [41]: 105.5 POC
Compound: COCCN1C[C@@H](NC(=O)Nc2c(-c3ccccc3)nc3c(C)nccn23)[C@H](c2ccc(F)c(F)c2)C1 [Example 20, 1-((3S,4R)-4-(3,4-difluorophenyl)-1-(2-methoxyethyl)pyrrolidin-3-yl)-3-(8-methyl-2-phenylimidazo[1,2-a]pyrazin-3-yl)urea]
